Assay results as given in patent US8901111B2, “Aryl-substituted heterocyclic urea modulators of fatty acid amide hydrolase” (Janssen Pharmaceutica NV, priority 2009, dated 2014).
Where a name gives a salt, the structure may show the parent alone.

How the values were obtained:
[1] = Kathuria 2003; cited from earlier work
[2] = test system: anxiety; conditions: rats; Kathuria 2003; cited from earlier work
[3] = test system: thermal nociception; conditions: cited from earlier work
[4] = test system: spasticity; conditions: Baker 2001; cited from earlier work
[5] = biological target: T1, FAAH (Homo sapiens, UniProt O00519); conditions: reported; cited from earlier work
T1 sequence (O00519 1-579): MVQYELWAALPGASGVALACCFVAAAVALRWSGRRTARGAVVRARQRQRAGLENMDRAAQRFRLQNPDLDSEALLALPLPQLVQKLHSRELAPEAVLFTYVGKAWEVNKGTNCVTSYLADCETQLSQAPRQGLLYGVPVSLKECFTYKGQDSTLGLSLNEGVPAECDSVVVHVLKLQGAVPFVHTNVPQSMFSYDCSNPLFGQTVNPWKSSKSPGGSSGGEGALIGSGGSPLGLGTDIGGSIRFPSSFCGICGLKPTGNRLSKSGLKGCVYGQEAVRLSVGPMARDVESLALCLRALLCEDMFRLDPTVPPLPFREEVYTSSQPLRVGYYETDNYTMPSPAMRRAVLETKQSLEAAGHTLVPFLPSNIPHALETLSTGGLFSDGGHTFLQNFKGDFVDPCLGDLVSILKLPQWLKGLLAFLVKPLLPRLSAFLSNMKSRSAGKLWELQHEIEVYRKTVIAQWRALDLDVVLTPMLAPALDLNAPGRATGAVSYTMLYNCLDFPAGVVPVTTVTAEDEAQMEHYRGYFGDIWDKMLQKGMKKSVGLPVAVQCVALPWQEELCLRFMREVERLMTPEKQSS

[6] = test system: thermal nociception; conditions: rats; WO 04/033652; cited from earlier work
[7] = test system: neuropathic pain; conditions: rats; WO 02/087569; cited from earlier work
[8] = test system: acute thermal nociception; conditions: rats; WO 02/087569; cited from earlier work
[9] = biological target: T1, FAAH; assay: Assay Method 1: FAAH assay, 3H-anandamide hydrolysis in homogenate of cells transfected with human FAAH; format: biochemical; set-up: expressed in transfected cells; crude homogenate (T84 cell pellets named as alternative); conditions: cell homogenate, 3H-AEA 80 nM, 1 h at rt, average of results
Method in brief: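 Homogenates of SK-N-MC cells stably transfected with human FAAH (or T84 cells) in pH 9 Tris/EDTA/glycerol/Triton buffer, incubated with compound and 80 nM final ^3H-anandamide for 1 h at rt. Released ^3H-ethanolamine separated through activated charcoal by centrifugation and counted by scintillation.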

[10] = biological target: T2, rat FAAH (Rattus norvegicus, UniProt P97612); assay: Assay Method 2: FAAH assay, 3H-anandamide hydrolysis in homogenate of cells transfected with rat FAAH; format: biochemical; conditions: cell homogenate, 3H-AEA 80 nM, 1 h at rt, average of results
T2 construct: expressed in transfected cells; crude homogenate
T2 sequence (P97612 1-579): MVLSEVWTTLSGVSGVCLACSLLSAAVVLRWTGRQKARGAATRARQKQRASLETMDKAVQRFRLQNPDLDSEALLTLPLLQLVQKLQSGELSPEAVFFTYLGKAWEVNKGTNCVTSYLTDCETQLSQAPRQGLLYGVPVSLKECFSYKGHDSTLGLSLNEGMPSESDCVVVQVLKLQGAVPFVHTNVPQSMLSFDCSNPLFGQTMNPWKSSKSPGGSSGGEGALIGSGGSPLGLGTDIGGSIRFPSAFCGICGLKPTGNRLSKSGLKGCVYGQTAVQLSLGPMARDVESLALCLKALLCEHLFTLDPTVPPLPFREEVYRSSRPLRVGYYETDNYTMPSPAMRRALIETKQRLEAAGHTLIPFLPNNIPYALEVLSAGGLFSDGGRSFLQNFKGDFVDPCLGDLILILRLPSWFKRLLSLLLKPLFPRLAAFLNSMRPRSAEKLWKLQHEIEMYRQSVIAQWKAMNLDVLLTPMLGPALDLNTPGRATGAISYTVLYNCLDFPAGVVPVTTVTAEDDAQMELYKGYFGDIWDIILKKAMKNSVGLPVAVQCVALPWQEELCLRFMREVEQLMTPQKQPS
Method in brief: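 Homogenate of SK-N-MC cells stably transfected with rat FAAH, in pH 9 Tris/EDTA/glycerol/Triton buffer, incubated 1 h at rt with 80 nM final [1-3H-ethanolamine]anandamide. Released 3H-ethanolamine separated from substrate on activated charcoal filters by centrifugation and quantified by scintillation counting.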

| IC50 [9] | IC50 [10] | Compound | also measured |
| --- | --- | --- | --- |
| – | – | NC(=O)c1cccc(-c2cccc(OC(=O)NC3CCCCC3)c2)c1 [URB-597] | analgesic efficacy in rat formalin test [1]: analgesic efficacy; efficacy in zero plus maze model of anxiety [2]: efficacy; analgesic efficacy in rat hot plate test ([3]; rat, Kathuria 2003): analgesic efficacy |
| – | – | CCCCCCCCCCCCCCCCS(=O)(=O)F [AM374] | spasticity in CREAE mice [4]: significantly reduce spasticity |
| – | – | O=C(CCCCCCc1ccccc1)c1ncc(-c2ccccn2)o1 [OL-135] | inhibition of FAAH [5]: potent inhibitor; analgesic activity in tail emersion test [6]: analgesic activity; analgesic activity in hot plate test ([3]; rats, WO 04/033652): analgesic activity |
| – | – | Cc1nc(-c2ccccc2)c(-c2ccccc2)n1CCCCCCNC(=O)Oc1ccccc1F [BMS-1] | analgesic effect in Chung spinal nerve ligation model [7]: analgesic effect; analgesic effect in Hargraves test [8]: analgesic effect |
| > 10000 nM | > 10000 nM | O=C(Nc1cccnc1)N1CCC(Cc2ccc3c(c2)OC(F)(F)O3)C1 (stereo not shown) [Example 71, 3-(2,2-Difluoro-benzo[1,3]dioxol-5-ylmethyl)-pyrrolidine-1-carboxylic acid pyridin-3-ylamide] | – |
| > 10000 nM | > 10000 nM | O=C(Nc1cccnc1)N1CC(COc2ccccc2)C1 [Example 2, 3-Phenoxymethyl-azetidine-1-carboxylic acid pyridin-3-ylamide, trifluoroacetate salt] | – |
| 63 nM | 73 nM | O=C(Nc1cnccc1Cl)N1CCC(CCOc2cccc(Oc3ccc(Cl)cc3)c2)C1 (stereo not shown) [Example 64, 3-{2-[3-(4-Chloro-phenoxy)-phenoxy]-ethyl}-pyrrolidine-1-carboxylic acid (4-chloro-pyridin-3-yl)-amide] | – |
| 5000 nM | 7000 nM | O=C(Nc1cccnc1)N1CCC(CCc2ccc3c(c2)OC(F)(F)O3)C1 (stereo not shown) [Example 77, 3-[2-(2,2-Difluoro-benzo[1,3]dioxol-5-yl)-ethyl]-pyrrolidine-1-carboxylic acid pyridin-3-ylamide] | – |
| 300 nM | 940 nM | O=C(Nc1cccnc1)N1CC(COc2cccc(OCc3ccccc3)c2)C1 [Example 23, 3-(3-Benzyloxy-phenoxymethyl)-azetidine-1-carboxylic acid pyridin-3-ylamide] | – |
| 1 nM | 1 nM | O=C(Nc1cnccc1Cl)N1CC(CCOc2cccc(Oc3ccc(Cl)cc3)c2)C1 [Example 28, 3-{2-[3-(4-Chloro-phenoxy)-phenoxy]-ethyl}-azetidine-1-carboxylic acid (4-chloro-pyridin-3-yl)-amide] | – |
| 13 nM | 10 nM | O=C(Nc1ccc(-n2nccn2)nc1)N1CC(CCOc2cccc(Oc3ccc(Cl)cc3)c2)C1 [Example 39, 3-{2-[3-(4-Chloro-phenoxy)-phenoxy]-ethyl}-azetidine-1-carboxylic acid (6-[1,2,3]triazol-2-yl-pyridin-3-yl)-amide] | – |
| 100 nM | 1000 nM | CS(=O)(=O)c1ccc(Oc2cccc(OCC3CCN(C(=O)Nc4cccnc4)C3)c2)cc1 (stereo not shown) [Example 52, 3-({3-[4-(Methylsulfonyl)phenoxy]phenoxy}methyl)-N-pyridin-3-ylpyrrolidine-1-carboxamide] | – |
| 1000 nM | 250 nM | O=C(Nc1cccnc1)N1CC(CCOc2cc(Cl)cc(Cl)c2)C1 [Example 47, 3-[2-(3,5-Dichloro-phenoxy)-ethyl]-azetidine-1-carboxylic acid pyridin-3-ylamide] | – |
| 1000 nM | 530 nM | O=C(Nc1cccnc1)N1CC(COc2ccc(Cl)c(Cl)c2)C1 [Example 21, 3-(3,4-Dichloro-phenoxymethyl)-azetidine-1-carboxylic acid pyridin-3-ylamide] | – |
| 400 nM | 70 nM | O=C(Nc1cccc2nccn12)N1CCC(Cc2cccc(Oc3ccc(F)cc3)c2)C1 (stereo not shown) [Example 76, 3-[3-(4-Fluoro-phenoxy)-benzyl]-pyrrolidine-1-carboxylic acid imidazo[1,2-a]pyridin-5-ylamide] | – |
| 39 nM | 84 nM | O=C(Nc1cnccc1Cl)N1CC(CCOCc2ccc(Cl)c(Cl)c2)C1 [Example 67, 3-[2-(3,4-Dichloro-benzyloxy)-ethyl]-azetidine-1-carboxylic acid (4-chloro-pyridin-3-yl)-amide] | – |
| 1100 nM | 175 nM | O=C(Nc1cccnc1)N1CC(COc2cccc(OC(F)(F)F)c2)C1 [Example 6, 3-(3-Trifluoromethoxy-phenoxymethyl)-azetidine-1-carboxylic acid pyridin-3-ylamide] | – |
| 58 nM | 48 nM | O=C(Nc1cccnc1)N1CCC(CCc2cccc(Oc3ccc(F)cc3)c2)C1 (stereo not shown) [Example 79, 3-{2-[3-(4-Fluoro-phenoxy)-phenyl]-ethyl}-pyrrolidine-1-carboxylic acid pyridin-3-ylamide] | – |
| > 10000 nM | > 10000 nM | O=C(Nc1cccnc1)N1CC(COc2ccc(OCc3ccccc3)cc2)C1 [Example 19, 3-(4-Benzyloxy-phenoxymethyl)-azetidine-1-carboxylic acid pyridin-3-ylamide] | – |
| 3000 nM | 1000 nM | O=C(Nc1ccc2nccn2c1)N1CC(CCOc2cccc(Oc3ccc(Cl)cc3)c2)C1 [Example 41, 3-{2-[3-(4-Chloro-phenoxy)-phenoxy]-ethyl}-azetidine-1-carboxylic acid imidazo[1,2-a]pyridin-6-ylamide] | – |
| 1200 nM | 1100 nM | O=C(Nc1cccnc1)N1CCC(Cc2cccc(Oc3ccc(F)cc3)c2)C1 (stereo not shown) [Example 74, 3-[3-(4-Fluoro-phenoxy)-benzyl]-pyrrolidine-1-carboxylic acid pyridin-3-ylamide] | – |
| 230 nM | 320 nM | O=C(Nc1cnccc1Cl)N1CCC(CCc2ccc3c(c2)OC(F)(F)O3)C1 (stereo not shown) [Example 78, 3-[2-(2,2-Difluoro-benzo[1,3]dioxol-5-yl)-ethyl]-pyrrolidine-1-carboxylic acid (4-chloro-pyridin-3-yl)-amide] | – |

| Compound | IC50 [9] | IC50 [10] | also measured |
| --- | --- | --- | --- |
| CCCCOc1cccc(OCC2CN(C(=O)Nc3cccnc3)C2)c1 [Example 12, 3-(3-Butoxy-phenoxymethyl)-azetidine-1-carboxylic acid pyridin-3-ylamide] | 300 nM | > 10000 nM | – |
| CCCCOc1cccc(OCCC2CN(C(=O)Nc3cccnc3)C2)c1 [Example 33, 3-[2-(3-Butoxy-phenoxy)-ethyl]-azetidine-1-carboxylic acid pyridin-3-ylamide] | 34 nM | 2000 nM | – |
